Test results: paper PMC10202292, “The exquisite specificity of human protein arginine methyltransferase 7 (PRMT7) toward Arg-X-Arg sites” (PLOS ONE, 2023)
Where two headings read alike, the source gives them in different places. No end group written: not given here.

Tests used:
GST-HsPRMT7 [1] = molecular target: T1, GST-HsPRMT7 (Homo sapiens, UniProt Q9NVM4); assay: Michaelis-Menten kinetics of peptide substrate methylation (P81 phosphocellulose paper assay); type: biochemical; design: key to Vmax, Michaelis-Menten best-fit value, Fig7 / Vmax, Michaelis-Menten best-fit value, Fig8: Vmax expressed as cpm (averages of cycles 2–4); conditions: for Vmax, times lower than RKR: experiments of Fig 7, relative to RKR peptide; for Vmax, Michaelis-Menten best-fit value, Fig7 / Km / Vmax, Michaelis-Menten best-fit value, Fig8: 60 min, 25°C; for change of Vmax after adding 130 mM KCl: with vs without 130 mM KCl (Fig 8, Table 2), in words
T1 construct: full-length human PRMT7 (residues 1–692); 34693; host or cells: E. coli BL21 DE3
T1 sequence (Q9NVM4 1-692): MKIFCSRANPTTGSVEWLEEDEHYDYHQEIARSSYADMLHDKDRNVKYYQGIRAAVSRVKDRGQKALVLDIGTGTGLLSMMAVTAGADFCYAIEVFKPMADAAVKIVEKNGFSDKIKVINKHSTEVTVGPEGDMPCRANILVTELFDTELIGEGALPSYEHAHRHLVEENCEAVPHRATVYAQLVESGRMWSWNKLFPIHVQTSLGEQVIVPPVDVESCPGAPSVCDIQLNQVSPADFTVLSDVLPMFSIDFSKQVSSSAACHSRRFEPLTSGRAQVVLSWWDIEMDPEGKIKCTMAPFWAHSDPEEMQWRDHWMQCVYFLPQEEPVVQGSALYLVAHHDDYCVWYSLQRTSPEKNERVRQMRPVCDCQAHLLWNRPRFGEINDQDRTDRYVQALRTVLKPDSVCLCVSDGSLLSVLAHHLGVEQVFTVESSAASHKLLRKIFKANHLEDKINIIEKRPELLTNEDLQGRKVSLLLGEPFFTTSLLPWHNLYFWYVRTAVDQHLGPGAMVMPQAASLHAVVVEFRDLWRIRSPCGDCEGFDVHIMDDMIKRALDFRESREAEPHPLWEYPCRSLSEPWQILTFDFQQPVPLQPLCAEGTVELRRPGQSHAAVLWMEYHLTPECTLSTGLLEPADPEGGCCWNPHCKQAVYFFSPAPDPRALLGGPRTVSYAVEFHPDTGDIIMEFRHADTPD
Description: (§1) In vitro methylation assays were performed with GST-HsPRMT7, the indicated substrate protein or peptide, and 1.4 μM S-adenosyl-L-[methyl-^3H]methionine ([^3H]-AdoMet; PerkinElmer cat no. NET155V), prepared from diluting a stock of 7.0 μM [^3H]-AdoMet (81.9 Ci/mmol, 1 mCi/mL in 9:1 10 mM H2SO4:EtOH, v/v) in 10 mM HCl. All reactions were performed using distilled water buffered with 50 mM potassium HEPES, pH 9.5 and 1 mM DTT, reaching a final reaction volume of 30 μL. The reactions were initiated by adding [^3H]-AdoMet to a final concentration of 0.14 μM. Control reactions (enzyme-only, substrate-only) contained distilled water instead of substrate or GST-HsPRMT7, respectively. After initiation with [^3H]-AdoMet, all reactions analyzed via P81 phosphocellulose filter paper assay were incubated in a water bath at 25°C unless otherwise indicated for the specified time periods and were terminated with 0.5 μL 100% (w/v) trifluoroacetic acid (TFA). P81 assays performed at t = 0 were individually terminated immediately following initiation. Samples analyzed via SDS-PAGE were incubated at 4°C for 24 hours and were quenched by adding 5x SDS sample loading buffer (250 mM Tris-HCl, pH 6.8; 10% SDS, 30% glycerol, 10% β-mercaptoethanol, 0.2% bromophenol blue), followed by heating at 97°C for 3 min.
(§2) In vitro methylation assays with GST-HsPRMT7, selected methyl-accepting substrates, and [^3H]-AdoMet were set up as described previously and performed in triplicate. Following incubation at 25°C unless otherwise indicated for the time periods specified, all samples were quenched with 0.5 μL 100% TFA and centrifuged at 9,300 g for 10 seconds in an Eppendorf centrifuge (Model 5417C). 1 cm^2 pieces of P81 phosphocellulose filter paper (LabAlley catalog no. 05-717-2A) were spotted with 25 μL from each reaction mixture and set to dry overnight. The following day, all filter paper pieces were washed three times with 50 mM sodium bicarbonate solution, pH 9.0, and dried again in liquid scintillation vials. After 5 mL of Safety Solve fluor (RPI industries) was added to each vial, [^3H] radioactivity in each sample was quantified via liquid scintillation counter (Beckman LS6500) for four total cycles at 5 minutes per sample. All data presented are expressed as averages of the cpm from cycles 2–4.
(§3) Statistical analyses were performed using the “Analyze Data” function on GraphPad Prism v.8.0.1. To determine statistical significance, unpaired homoscedastic two-tailed Student’s t tests were performed with significance level α = 0.05 with the relevant data. To obtain apparent km and Vmax values, kinetic data were analyzed by non-linear regression using the Michaelis-Menten equation.

GST-HsPRMT7 [2] = molecular target: T1, GST-HsPRMT7; assay: P81 phosphocellulose filter paper methylation assay with peptide substrates (cpm, end point and time course); type: biochemical; conditions: for methylation activity compared with enzyme-only control: 0-120 min time course (Fig 6); for Difference between means ± SEM vs GST-HsPRMT7 + 10 uM Hs H2B (23-37), Fig5: 10 uM peptide, 4°C
Description: as §1, §2, §3

human PRMT7 = conditions: relative to unsubstituted peptide; cited from earlier work
Description: Comparatively, a previous study of ionic strength in human HEK293 cells estimates the intracellular concentration of potassium ions to be about 120–140 mM in human cells. As such, our results in Fig 7 led us to question whether this dramatic decrease in activity may be associated with a loss of either substrate-enzyme binding affinity or catalytic activity. || We confirm that human PRMT7 activity is quite sensitive to changes in the RXR target sequence in the substrate protein. […] The exquisite specificity of PRMT7 toward the basic RXR motif can be contrasted to the much broader speci ...

[3] = no added salt, 5 μg GST-HsPRMT7, 0.14 μM [3H]-AdoMet, GraphPad Prism fit
[4] = no added salt, 5 μg GST-HsPRMT7, 0.14 μM [3H]-AdoMet, GraphPad Prism fit, read-out: Km, Michaelis-Menten best-fit value, Fig7
[5] = no added salt, 5 μg GST-HsPRMT7, 0.14 μM [3H]-AdoMet, experiments of Fig 7, read-out: apparent km (binding affinities), Fig 7
[6] = no added salt, apparent km of peptide substrate, 5 μg GST-HsPRMT7, various peptide concentrations, 0.14 μM [3H]-AdoMet, pH 9.5, Michaelis-Menten fit, triplicates (Fig 8), read-out: km
[7] = no salt, 5 μg GST-HsPRMT7, 0.14 μM [3H]-AdoMet, GraphPad Prism fit
[8] = no salt, 5 μg GST-HsPRMT7, 0.14 μM [3H]-AdoMet, GraphPad Prism fit, read-out: Km, Michaelis-Menten best-fit value, Fig8
[9] = 10 μM peptide, 5 μg GST-HsPRMT7, 25°C, in words
[10] = + 130 mM KCl, 5 μg GST-HsPRMT7, 0.14 μM [3H]-AdoMet, GraphPad Prism fit, read-out: Km, Michaelis-Menten best-fit value, Fig8
[11] = +130 mM KCl, apparent km, 5 μg GST-HsPRMT7, various peptide concentrations, 0.14 μM [3H]-AdoMet, pH 9.5, Michaelis-Menten fit, triplicates (Fig 8), read-out: km
[12] = from Table 2, no added salt, response to reviewers, RGG peptide apparently = Mono R

| Substance | Vmax, Michaelis-Menten best-fit value, Fig7 (GST-HsPRMT7 [1]; [3]) | Km (GST-HsPRMT7 [1]; [4]) | Km (GST-HsPRMT7 [1]; [6]) | Vmax, Michaelis-Menten best-fit value, Fig8 (GST-HsPRMT7 [1]; [7]) | Km (GST-HsPRMT7 [1]; [8]) | Km (GST-HsPRMT7 [1]; [10]) | Km (GST-HsPRMT7 [1]; [11]) | change of Vmax after adding 130 mM KCl (GST-HsPRMT7 [1]) | PRMT7 activity with substituted human histone H2B (23–37) peptides (human PRMT7) | other results |
| --- | --- | --- | --- | --- | --- | --- | --- | --- | --- | --- |
| Ac-KKGGRGGGGKKY-NH2 [Mono R, synthetic peptide with a single arginine flanked by glycine and lysine residues] | 262.6 | 223 nM | 1400 nM | 993.4 | 1420 nM | 280 nM |  |  |  | PRMT7 methylation activity (GST-HsPRMT7 [2]; 10 μM peptide, 5 μg GST-HsPRMT7, 0.14 μM [3H]-AdoMet, 20 h, 4°C (Fig 5), in words): barely detectable over the PRMT7-only control; methylation activity compared with enzyme-only control (GST-HsPRMT7 [2]; [9]): not significantly greater than control; Difference between means ± SEM vs GST-HsPRMT7 + 10 uM Hs H2B (23-37), Fig5 (GST-HsPRMT7 [2]; 20 h, n = 3, SEM): -4140 ± 625.1 cpm; Vmax, times lower than RKR (GST-HsPRMT7 [1]): 5–6 times; Km (GST-HsPRMT7 [1]; [5]): 1400 nM |
| KKDGKKRRKSRKESY [Xl H2B (23–37), synthetic peptide of amino acids 23–37 of Xenopus laevis histone H2B, containing 29-RRKSR-33] |  |  |  |  |  |  |  |  |  | GST-HsPRMT7 methylation activity (GST-HsPRMT7 [2]; 10 μM peptide, 5 μg GST-HsPRMT7, 0.14 μM [3H]-AdoMet, 40 min, 25°C (Fig 3), in words): no significant methylation activity over background; methylation activity compared with enzyme-only control (GST-HsPRMT7 [2]; [9]): low methylation activity but was significantly above control; methylation by human PRMT7 (GST-HsPRMT7 [2]; 10 and 50 μM peptide, 5 μg GST-HsPRMT7, 25°C, 0-3 h time course (Fig 4), in words): methylated by human PRMT7, albeit at low levels; Mean of GST-HsPRMT7 + peptide, Fig3 (GST-HsPRMT7 [2]; mean of n = 3, 10 μM peptide, 40 min, 25°C): 98.42 cpm; Difference between means ± SEM vs peptide only, Fig3 (GST-HsPRMT7 [2]; n = 3, 10 μM peptide, 40 min, 25°C, SEM): 28.16 ± 17.00 cpm |
| R29K: human histone H2B (23–37) peptide with R29K substitution, from ref 11 (KKDGKKKKRSRKESY; not fully specified (N-terminus, C-terminus); UniProt P62807 24-38, looked up, variant R29K) |  |  |  |  |  |  |  |  | at least a two-thirds reduction |  |
| R31K-substituted human H2B (23–37): R31K-substituted human H2B (23–37) peptide, from ref 11 (KKDGKKRKKSRKESY; not fully specified (N-terminus, C-terminus); UniProt P62807 24-38, looked up, variant R31K) |  |  |  |  |  |  |  |  | no methyl-accepting activity |  |
| R33K: human histone H2B (23–37) peptide with R33K substitution, from ref 11 (KKDGKKRKRSKKESY; not fully specified (N-terminus, C-terminus); UniProt P62807 24-38, looked up, variant R33K) |  |  |  |  |  |  |  |  | at least a two-thirds reduction |  |

Further lines, with some results ahead:

| Vmax, Michaelis-Menten best-fit value, Fig7 (GST-HsPRMT7 [1]; [3]) | Km (GST-HsPRMT7 [1]; [4]) | Km (GST-HsPRMT7 [1]; [6]) | Vmax, Michaelis-Menten best-fit value, Fig8 (GST-HsPRMT7 [1]; [7]) | Km (GST-HsPRMT7 [1]; [8]) | Km (GST-HsPRMT7 [1]; [10]) | Km (GST-HsPRMT7 [1]; [11]) | Substance | change of Vmax after adding 130 mM KCl (GST-HsPRMT7 [1]) | PRMT7 activity with substituted human histone H2B (23–37) peptides (human PRMT7) | other results |
| --- | --- | --- | --- | --- | --- | --- | --- | --- | --- | --- |
| 299.5 | 192 nM | 2800 nM | 752.7 | 2790 nM |  |  | Ac-KKGGRERGGKKY-NH2 [synthetic RXR peptide with glutamate within the motif] |  |  | Vmax, times lower than RKR (GST-HsPRMT7 [1]): 5–6 times; Km (GST-HsPRMT7 [1]; [5]): 2800 nM |
| 1036 | 682 nM | 700 nM | 2435 | 742 nM | 6220 nM | 6200 nM | Ac-KKGGRGRGGKKY-NH2 [synthetic peptide with an RGR motif flanked by glycine and lysine residues] | up to an approximately three-fold decrease |  | methylation activity (maximum value) (GST-HsPRMT7 [2]; 10 μM peptide, 5 μg GST-HsPRMT7, 0.14 μM [3H]-AdoMet, 25°C, t = 120 min (Fig 6), approximate): about 800 cpm; decrease of PRMT7 activity relative to human H2B (23–37) (GST-HsPRMT7 [2]; 10 μM peptide, 5 μg GST-HsPRMT7, 0.14 μM [3H]-AdoMet, 20 h, 4°C (Fig 5)): 4 to 5 fold; Difference between means ± SEM vs GST-HsPRMT7 + 10 uM Hs H2B (23-37), Fig5 (GST-HsPRMT7 [2]; 20 h, n = 3, SEM): -2852 ± 662.1 cpm; Vmax relative to the RGG peptide (GST-HsPRMT7 [1]; [12]): about 2.5 fold; apparent km relative to the RGG peptide (GST-HsPRMT7 [1]; [12]): about half |
| 1042 | 500 nM | 500 nM | 969.7 | 514 nM | 2430 nM | 2400 nM | Ac-KKGGRGRKGKKY-NH2 [synthetic RXR peptide with an additional lysine after the RGR motif] | up to an approximately three-fold decrease |  |  |
| 1749 | 759 nM | 600 nM | 1716 | 553 nM | 6880 nM | 6900 nM | Ac-KKGGRKRGGKKY-NH2 [synthetic RXR peptide with lysine within the motif] | up to an approximately three-fold decrease |  |  |
| 1553 | 895 nM | 600 nM | 1150 | 601 nM | 3350 nM | 3300 nM | Ac-KKGKRGRGGKKY-NH2 [synthetic RXR peptide with an additional lysine before the RGR motif] | up to an approximately three-fold decrease |  |  |
